{"source": "patent US20090312407A1", "about": "“Synthetic Flavonoids and Pharmaceutical Compositions and Therapeutic Methods of Treatment of Cancer and other Pathologies” (priority 2007, published 2009)", "key": {"[1]": {"conditions": "attributed to 3-OH group; cited from earlier work"}, "benzodiazepine receptor": {"test_system": "benzodiazepine receptor", "conditions": "cited from earlier work"}, "[2]": {"test_system": "multidrug resistant cells", "conditions": "collateral sensitivity; cited from earlier work"}, "H-9 cells": {"test_system": "H-9 cells", "experiment": "Cytotoxicity on H-9 cells", "assay_type": "cell-based", "conditions": "for Cells (×10^4) Mean / Cells (×10^4): Table 3, 12-05 to 12-09/2005; for inhibition at 5 µg/mL: H9, 5 μg/ml; for inhibition at 10 µg/mL: H9, 10 μg/ml; for inhibition at 50 µg/mL: H9, 50 μg/ml", "from_the_text": "(§1) The purified and identified analogs were subjected to in vitro biological testing.\nThese three congeners were further evaluated in H9 and PC3 cells. AZT was employed as a positive control in all of these experiments."}, "PC-3 cells": {"test_system": "PC-3 cells", "experiment": "Cytotoxicity on PC-3 cells", "assay_type": "cell-based", "conditions": "PC-3 cells; same conditions as AZT", "from_the_text": "as §1"}, "MCF-7 cells": {"test_system": "MCF-7 cells", "experiment": "Cytotoxicity on MCF-7 cells", "assay_type": "cell-based", "conditions": "for Cells (×10^4) Mean / Cells (×10^4): Table 6, 11-14 to 11-18/2005; for % Inhibition / inhibition at 1 µg/mL / inhibition at 5 µg/mL / inhibition at 10 µg/mL / inhibition at 50 µg/mL: vs 2% DMSO, Table 6; for inhibition at 1 µg/mL / inhibition at 5 µg/mL / inhibition at 10 µg/mL / inhibition at 50 µg/mL: Homo sapiens; for inhibition at 1 µg/mL: MCF7, 1 μg/ml; for inhibition at 5 µg/mL: MCF7, 5 μg/ml; for inhibition at 10 µg/mL: MCF7, 10 μg/ml; for inhibition at 50 µg/mL: MCF7, 50 μg/ml"}, "[3]": {"conditions": "Homo sapiens, single count, vs 2% DMSO, Table 3, read-out: % Inhibition"}, "[4]": {"conditions": "Homo sapiens, vs 2% DMSO, Table 3, read-out: % Inhibition Mean"}, "[5]": {"conditions": "single count, read-out: % Inhibition"}}, "note": "Where “and” joins values, the source holds several entries; their conditions need not be identical. Equal values may be shown once. Entries after “also recorded” stand apart in the source; their conditions may differ. Read-outs that look alike come from different tables or passages of the source."}
{"compound": "O=c1c(O)c(-c2ccc(O)c(O)c2)oc2cc(O)cc(O)c12", "note": "[quercetin]", "values": [{"measurement": "mutagenic properties", "setting": "[1]", "value": "some mutagenic properties"}]}
{"compound": "O=c1cc(-c2cccc([N+](=O)[O-])c2)oc2ccc(Br)cc12", "note": "[6-bromo-3′-nitroflavone]", "values": [{"measurement": "activity as benzodiazepine receptor ligand compared to diazepam", "setting": "benzodiazepine receptor", "value": "close or higher than that of diazepam"}]}
{"compound": "O=c1cc(-c2ccccc2)oc2ccc(Br)cc12", "note": "[6-bromoflavone]", "values": [{"measurement": "activity as benzodiazepine receptor ligand compared to diazepam", "setting": "benzodiazepine receptor", "value": "close or higher than that of diazepam"}]}
{"compound": "O=c1cc(-c2ccccc2)oc2ccc3ccccc3c12", "note": "[β-naphthoflavone]", "values": [{"measurement": "toxicity to multidrug resistant cells vs drug-sensitive counterparts", "setting": "[2]", "value": "considerably more toxic to multidrug resistant cells than to their drug-sensitive counterparts"}]}
{"compound": "COc1ccc(C=CC(=O)c2cc(Br)cc(Br)c2O)cc1OC", "note": "(stereo in doubt) [CHBr 2M]", "values": [{"measurement": "Cells (×10^4) Mean", "setting": "H-9 cells; 1 μg/ml", "value": "47.42 ×10^4"}, {"measurement": "% Inhibition", "setting": "H-9 cells; 1 μg/ml, single count, vs 2% DMSO, Table 3", "value": "9.45% and 1.49% and 5.97%"}, {"measurement": "Cells (×10^4)", "setting": "H-9 cells; 1 μg/ml, single count", "value": "45.5 ×10^4 and 49.5 ×10^4 and 47.3 ×10^4"}, {"measurement": "Cells (×10^4) Mean", "setting": "H-9 cells; 5 μg/ml", "value": "25.33 ×10^4"}, {"measurement": "% Inhibition", "setting": "H-9 cells; 5 μg/ml, single count, vs 2% DMSO, Table 3", "value": "50.75% and 48.76%"}, {"measurement": "Cells (×10^4)", "setting": "H-9 cells; 5 μg/ml, single count", "value": "25.5 ×10^4 and 24.8 ×10^4 and 25.8 ×10^4"}, {"measurement": "Cells (×10^4) Mean", "setting": "H-9 cells; 10 μg/ml", "value": "17.58 ×10^4"}, {"measurement": "% Inhibition", "setting": "H-9 cells; 10 μg/ml, single count, vs 2% DMSO, Table 3", "value": 67.68, "unit": "%"}, {"measurement": "Cells (×10^4)", "setting": "H-9 cells; 10 μg/ml, single count", "value": "18.3 ×10^4 and 16.3 ×10^4"}, {"measurement": "Cells (×10^4) Mean", "setting": "H-9 cells; 50 μg/ml", "value": "11.58 ×10^4"}, {"measurement": "% Inhibition", "setting": "H-9 cells; 50 μg/ml, single count, vs 2% DMSO, Table 3", "value": 77.11, "unit": "%"}, {"measurement": "Cells (×10^4)", "setting": "H-9 cells; 50 μg/ml, single count", "value": "11.8 ×10^4 and 11.5 ×10^4"}, {"measurement": "inhibitory activity / growth inhibition compared to AZT", "setting": "H-9 cells; H-9 cells, same conditions as AZT", "value": "much superior; also recorded: as good or somewhat better"}, {"measurement": "inhibition at 1 µg/mL", "setting": "H-9 cells; Homo sapiens, H9, 1 μg/ml, vs 2% DMSO, Table 3, read-out: % Inhibition Mean", "value": 5.64, "unit": "%"}, {"measurement": "inhibition at 5 µg/mL", "setting": "H-9 cells; [3]", "value": 49.2, "unit": "%"}, {"measurement": "inhibition at 5 µg/mL", "setting": "H-9 cells; [4]", "value": 49.6, "unit": "%"}, {"measurement": "inhibition at 10 µg/mL", "setting": "H-9 cells; [3]", "value": 63.7, "unit": "%"}, {"measurement": "inhibition at 10 µg/mL", "setting": "H-9 cells; [4]", "value": 65, "unit": "%"}, {"measurement": "inhibition at 50 µg/mL", "setting": "H-9 cells; [3]", "value": 76.6, "unit": "%"}, {"measurement": "inhibition at 50 µg/mL", "setting": "H-9 cells; [4]", "value": 77, "unit": "%"}, {"measurement": "inhibitory activity / growth inhibition compared to AZT", "setting": "PC-3 cells", "value": "much superior; also recorded: as good or somewhat better"}, {"measurement": "Cells (×10^4) Mean", "setting": "MCF-7 cells; 1 μg/ml", "value": "49.08 ×10^4"}, {"measurement": "% Inhibition", "setting": "MCF-7 cells; 1 μg/ml, single count", "value": "10.95% and 18.73%"}, {"measurement": "Cells (×10^4)", "setting": "MCF-7 cells; 1 μg/ml, single count", "value": "48.8 ×10^4 and 51.5 ×10^4 and 47.0 ×10^4"}, {"measurement": "Cells (×10^4) Mean", "setting": "MCF-7 cells; 5 μg/ml", "value": "26.25 ×10^4"}, {"measurement": "% Inhibition", "setting": "MCF-7 cells; 5 μg/ml, single count", "value": "56.34% and 54.18%"}, {"measurement": "Cells (×10^4)", "setting": "MCF-7 cells; 5 μg/ml, single count", "value": "27.0 ×10^4 and 25.3 ×10^4 and 26.5 ×10^4"}, {"measurement": "Cells (×10^4) Mean", "setting": "MCF-7 cells; 10 μg/ml", "value": "7.92 ×10^4"}, {"measurement": "% Inhibition", "setting": "MCF-7 cells; 10 μg/ml, single count", "value": "84.44% and 87.03%"}, {"measurement": "Cells (×10^4)", "setting": "MCF-7 cells; 10 μg/ml, single count", "value": "7.3 ×10^4 and 9.0 ×10^4 and 7.5 ×10^4"}, {"measurement": "Cells (×10^4) Mean", "setting": "MCF-7 cells; 50 μg/ml", "value": "0.75 ×10^4"}, {"measurement": "% Inhibition", "setting": "MCF-7 cells; 50 μg/ml, single count", "value": "98.27% and 99.14%"}, {"measurement": "Cells (×10^4)", "setting": "MCF-7 cells; 50 μg/ml, single count", "value": "0.8 ×10^4 and 1.0 ×10^4 and 0.5 ×10^4"}, {"measurement": "inhibition at 1 µg/mL", "setting": "MCF-7 cells; [5]", "value": 15.7, "unit": "%"}, {"measurement": "inhibition at 1 µg/mL", "setting": "MCF-7 cells; read-out: % Inhibition Mean", "value": 15.1, "unit": "%"}, {"measurement": "inhibition at 5 µg/mL", "setting": "MCF-7 cells; [5]", "value": 53.3, "unit": "%"}, {"measurement": "inhibition at 5 µg/mL", "setting": "MCF-7 cells; read-out: % Inhibition Mean", "value": 54.6, "unit": "%"}, {"measurement": "inhibition at 10 µg/mL", "setting": "MCF-7 cells; [5]", "value": 87.5, "unit": "%"}, {"measurement": "inhibition at 10 µg/mL", "setting": "MCF-7 cells; read-out: % Inhibition Mean", "value": 86.3, "unit": "%"}, {"measurement": "inhibition at 50 µg/mL", "setting": "MCF-7 cells; [5]", "value": 98.7, "unit": "%"}, {"measurement": "inhibition at 50 µg/mL", "setting": "MCF-7 cells; read-out: % Inhibition Mean", "value": 98.7, "unit": "%"}, {"measurement": "inhibitory activity / growth inhibition compared to AZT", "setting": "MCF-7 cells; MCF-7 cells, same conditions as AZT", "value": "much superior; also recorded: as good or somewhat better"}, {"measurement": "cytotoxic activities on MCF-7 cells", "setting": "MCF-7 cells; different drug concentrations", "value": "good cytotoxic activities"}]}
